Patent publication US7524847B2, “Fused 1,3-dihydro-imidazole ring compounds” (Eisai R&D Management Co., Ltd., priority 2002, dated 2009)
Where a name gives a salt, the structure may show the parent alone.

Biological target: T1, DPP-IV obtained from pig kidney (Sus scrofa, UniProt P22411)
T1 construct: DPP-IV obtained from pig kidney; from tissue; host or cells: pig kidney
Experiment: Measurement of DPPIV-inhibiting activity (in vitro experiment)
Assay type: biochemical
Details: DPP-IV from pig kidney 10 mU/mL, substrate Gly-Pro-p-nitroanilide 0.33 mM, 20 min preincubation, 20 min reaction, absorbance 405 nm
Description: DPP-IV obtained from pig kidney was dissolved in a reaction buffer (50 mM Tris-HCl pH7.4, 0.1% BSA) at 10 mU/mL, and 110 μL of this was used. 15 μL of the drug obtained from the aforementioned Examples was added, and this was incubated at room temperature for 20 minutes, and then 25 μL of a 2 mM solution of Gly-Pro-p-nitroanilide (final concentration 0.33 mM) was added to start the enzymatic reaction. The reaction time was 20 minutes, and 1 N phosphoric acid solution (25 μL) was added to stop the reaction.

T1 sequence (P22411 whole entry): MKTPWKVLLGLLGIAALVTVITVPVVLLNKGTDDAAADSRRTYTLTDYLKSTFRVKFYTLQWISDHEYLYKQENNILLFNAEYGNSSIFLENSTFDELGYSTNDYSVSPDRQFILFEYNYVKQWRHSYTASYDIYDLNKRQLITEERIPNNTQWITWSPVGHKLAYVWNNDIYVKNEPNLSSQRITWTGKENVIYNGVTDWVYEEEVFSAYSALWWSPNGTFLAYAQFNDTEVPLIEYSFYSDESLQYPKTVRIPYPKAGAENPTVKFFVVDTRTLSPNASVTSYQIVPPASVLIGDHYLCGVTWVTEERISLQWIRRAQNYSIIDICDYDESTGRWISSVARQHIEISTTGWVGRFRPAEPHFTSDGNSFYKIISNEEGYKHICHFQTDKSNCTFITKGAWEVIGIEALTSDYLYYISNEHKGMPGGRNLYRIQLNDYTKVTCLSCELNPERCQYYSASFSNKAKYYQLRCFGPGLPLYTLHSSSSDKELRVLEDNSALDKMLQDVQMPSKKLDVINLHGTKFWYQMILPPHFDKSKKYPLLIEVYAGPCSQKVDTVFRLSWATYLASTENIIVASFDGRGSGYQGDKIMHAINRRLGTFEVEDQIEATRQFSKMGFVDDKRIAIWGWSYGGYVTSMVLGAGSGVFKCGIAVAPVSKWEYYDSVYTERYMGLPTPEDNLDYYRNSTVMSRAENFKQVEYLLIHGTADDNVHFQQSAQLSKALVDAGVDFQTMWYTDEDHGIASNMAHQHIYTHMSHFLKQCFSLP

In order of falling IC50:
1. CC#CCn1c(=O)n(C)c2nc(Cl)nc(N3CCCC(NC)C3)c21 (centres unmarked) [Example 28, 7-(2-Butynyl)-2-chloro-9-methyl-6-(3-methylamino-piperidin-1-yl)-7,9-dihydropurin-8-one trifluoroacetic acid salt]  89500 nM
2. CC(C)=CCn1c(=O)n(C)c2nc(Cl)nc(N3CCNCC3)c21 [Example 19, 2-Chloro-9-methyl-7-(3-methyl-2-butenyl)-6-(piperazin-1-yl)-7,9-dihydropurin-8-one trifluoroacetic acid salt]  5410 nM
3. CC#CCn1c(=O)n(C)c2nc(Cl)nc(N3CCCC(N)C3)c21 (centres unmarked) [Example 27, 6-(3-Amino-piperidin-1-yl)-7-(2-butynyl)-2-chloro-9-methyl-7,9-dihydropurin-8-one trifluoroacetic acid salt]  3140 nM
4. Cn1c(=O)n(Cc2ccccc2)c2c(N3CCNCC3)nc(Cl)nc21 [Example 21, 7-Benzyl-2-chloro-9-methyl-6-(piperazin-1-yl)-7,9-dihydropurin-8-one trifluoroacetic acid salt]  2450 nM
5. CC#CCn1c(=O)n(C)c2nc(O)nc(N3CCNCC3)c21 [Example 8, 7-(2-Butynyl)-2-hydroxy-9-methyl-6-(piperazin-1-yl)-7,9-dihydropurin-8-one trifluoroacetic acid salt]  1160 nM
6. CCC#CCn1c(=O)n(C)c2nc(Cl)nc(N3CCNCC3)c21 [Example 18, 2-Chloro-9-methyl-7-(2-pentynyl)-6-(piperazin-1-yl)-7,9-dihydropurin-8-one trifluoroacetic acid salt]  972 nM
7. CC=CCn1c(=O)n(C)c2nc(Cl)nc(N3CCNCC3)c21 [Example 20, 7-(2-Butenyl)-2-chloro-9-methyl-6-(piperazin-1-yl)-7,9-dihydropurin-8-one trifluoroacetic acid salt]  642 nM
8. CC#CCn1c(=O)n(C)c2nc(N)nc(N3CCNCC3)c21 [Example 6, 2-Amino-7-(2-butynyl)-9-methyl-6-(piperazin-1-yl)-7,9-dihydropurin-8-one trifluoroacetic acid salt]  450 nM
9. CC#CCOc1nc(N2CCNCC2)c2c(n1)n(C)c(=O)n2CC#CC [Example 16, 7-(2-Butynyl)-2-(2-butynyloxy)-9-methyl-6-(piperazin-1-yl)-7,9-dihydropurin-8-one trifluoroacetic acid salt]  364 nM
10. CC#CCn1c(=O)n(C)c2nc(N(C)C)nc(N3CCNCC3)c21 [Example 4, 7-(2-Butynyl)-2-dimethylamino-9-methyl-6-(piperazin-1-yl)-7,9-dihydropurin-8-one trifluoroacetic acid salt]  334 nM
11. CC#CCn1c(=O)n(C)c2nc(N(CC)CC)nc(N3CCNCC3)c21 [Example 3, 7-(2-Butynyl)-2-diethylamino-9-methyl-6-(piperazin-1-yl)-7,9-dihydropurin-8-one trifluoroacetic acid salt]  325 nM
12. CC#CCn1c(=O)n(C)c2nc(NCc3ccccc3)nc(N3CCNCC3)c21 [Example 17, 2-Benzylamino-7-(2-butynyl)-9-methyl-6-(piperazin-1-yl)-7,9-dihydropurin-8-one trifluoroacetic acid salt]  263 nM
13. CC#CCn1c(=O)n(CC(=O)O)c2nc(Cl)nc(N3CCNCC3)c21 [Example 31, [7-(2-Butynyl)-2-chloro-8-oxo-6-(piperazin-1-yl)-7,8-dihydropurin-9-yl]acetic acid trifluoroacetic acid salt]  259 nM
14. CC#CCn1c(=O)n(C)c2nc(SC)nc(N3CCNCC3)c21 [Example 9, 7-(2-Butynyl)-2-methylsulfanyl-9-methyl-6-(piperazin-1-yl)-7,9-dihydropurin-8-one trifluoroacetic acid salt]  214 nM
15. CC#CCn1c(=O)n(CC#N)c2nc(Cl)nc(N3CCNCC3)c21 [Example 32, [7-(2-Butynyl)-2-chloro-8-oxo-6-(piperazin-1-yl)-7,8-dihydropurin-9-yl]acetonitrile trifluoroacetic acid salt]  212 nM
16. CC#CCn1c(=O)n(C)c2nc(OCc3ccccc3)nc(N3CCNCC3)c21 [Example 11, 2-Benzyloxy-7-(2-butynyl)-9-methyl-6-(piperazin-1-yl)-7,9-dihydropurin-8-one trifluoroacetic acid salt]  179 nM
17. CC#CCn1c(=O)n(C)c2nc(NC)nc(N3CCNCC3)c21 [Example 5, 7-(2-Butynyl)-9-methyl-2-methylamino-6-(piperazin-1-yl)-7,9-dihydropurin-8-one trifluoroacetic acid salt]  172 nM
18. CC#CCn1c(=O)n(CC(N)=O)c2nc(Cl)nc(N3CCNCC3)c21 [Example 33, 2-[7-(2-Butynyl)-2-chloro-8-oxo-6-(piperazin-1-yl)-7,8-dihydropurin-9-yl]acetamide trifluoroacetic acid salt]  163 nM
19. CC#CCn1c(=O)n(CC2CC2)c2nc(Cl)nc(N3CCNCC3)c21 [Example 38, 7-(2-Butynyl)-2-chloro-9-cyclopropylmethyl-6-(piperazin-1-yl)-7,9-dihydropurin-8-one trifluoroacetic acid salt]  150 nM
20. CC#CCn1c(=O)n(CCCC#N)c2nc(Cl)nc(N3CCNCC3)c21 [Example 37, 4-[7-(2-Butynyl)-2-chloro-8-oxo-6-(piperazin-1-yl)-7,8-dihydropurin-9-yl]butyronitrile trifluoroacetic acid]  149 nM
21. CC#CCn1c(=O)n(CCC)c2nc(Cl)nc(N3CCNCC3)c21 [Example 30, 7-(2-Butynyl)-2-chloro-6-(piperazin-1-yl)-9-propyl-7,9-dihydropurin-8-one trifluoroacetic acid salt]  132 nM
22. CC#CCn1c(=O)n(-c2ccoc2)c2nc(Cl)nc(N3CCNCC3)c21 [Example 44, 7-(2-Butynyl)-2-chloro-9-(furan-3-yl)-6-(piperazin-1-yl)-7,9-dihydropurin-8-one trifluoroacetic acid salt]  132 nM
23. CC#CCn1c(=O)n(-c2ccsc2)c2nc(Cl)nc(N3CCNCC3)c21 [Example 45, 7-(2-Butynyl)-2-chloro-6-(piperazin-1-yl)-9-(thiophen-3-yl)-7,9-dihydropurin-8-one trifluoroacetic acid salt]  130 nM
24. CC#CCn1c(=O)n(C)c2nc(Oc3ccccc3C(N)=O)nc(N3CCNCC3)c21 [Example 14, 2-[7-(2-Butynyl)-9-methyl-8-oxo-6-(piperazin-1-yl)-8,9-dihydro-7H-purin-2-yloxy]benzamide trifluoroacetic acid salt]  124 nM
25. CC#CCn1c(=O)n(-c2ccccc2)c2nc(Cl)nc(N3CCNCC3)c21 [Example 41, 7-(2-Butynyl)-2-chloro-9-phenyl-6-(piperazin-1-yl)-7,9-dihydropurin-8-one trifluoroacetic acid salt]  91.7 nM
26. CC#CCn1c(=O)n(CC(=O)OC)c2nc(Cl)nc(N3CCNCC3)c21 [Example 40, [7-(2-Butynyl)-2-chloro-8-oxo-6-(piperazin-1-yl)-7,8-dihydropurin-9-yl]acetic acid methyl ester trifluoroacetic acid salt]  89.6 nM
27. CC#CCn1c(=O)n(C)c2nc(Cl)nc(N3CCNCC3)c21 [Example 2, 7-(2-Butynyl)-2-chloro-9-methyl-6-(piperazin-1-yl)-7,9-dihydropurin-8-one trifluoroacetic acid salt]  86.4 nM
28. CC#CCn1c(=O)n(Cc2ccccc2)c2nc(Cl)nc(N3CCNCC3)c21 [Example 36, 9-Benzyl-7-(2-butynyl)-2-chloro-6-(piperazin-1-yl)-7,9-dihydropurin-8-one trifluoroacetic acid salt]  80.7 nM
29. CC#CCn1c(=O)n(-c2ccc(OC)cc2)c2nc(Cl)nc(N3CCNCC3)c21 [Example 43, 7-(2-Butynyl)-2-chloro-9-(4-methoxyphenyl)-6-(piperazin-1-yl)-7,9-dihydropurin-8-one trifluoroacetic acid salt]  67.8 nM
30. CC#CCn1c(=O)n(C)c2nc(Oc3ccccc3)nc(N3CCNCC3)c21 [Example 12, 7-(2-Butynyl)-9-methyl-2-phenoxy-6-(piperazin-1-yl)-7,9-dihydropurin-8-one trifluoroacetic acid salt]  47.4 nM
31. CC#CCn1c(=O)n(-c2ccc(C#N)cc2)c2nc(Cl)nc(N3CCNCC3)c21 [Example 42, 4-[7-(2-Butynyl)-2-chloro-8-oxo-6-(piperazin-1-yl)-7,8-dihydropurin-9-yl]benzonitrile trifluoroacetic acid salt]  42.5 nM
32. CC#CCn1c(=O)n(Cc2ccccc2C(N)=O)c2nc(Cl)nc(N3CCNCC3)c21 [Example 39, 2-[7-(2-Butynyl)-2-chloro-8-oxo-6-(piperazin-1-yl)-7,8-dihydropurin-9-ylmethyl]benzamide trifluoroacetic acid salt]  32.3 nM
33. CC#CCn1c(=O)n(CCc2ccc(Br)cc2)c2nc(Cl)nc(N3CCNCC3)c21 [Example 35, 9-[2-(4-Bromophenyl)-ethyl]-7-(2-butynyl)-2-chloro-6-(piperazin-1-yl)-7,9-dihydropurin-8-one trifluoroacetic acid salt]  26.6 nM
34. CC#CCn1c(=O)n(CCc2ccccc2)c2nc(Cl)nc(N3CCNCC3)c21 [Example 34, 7-(2-Butynyl)-2-chloro-9-(2-phenylethyl)-6-(piperazin-1-yl)-7,9-dihydropurin-8-one trifluoroacetic acid salt]  14.8 nM
35. CC#CCn1c(=O)n(Cc2ccccc2C#N)c2nc(Cl)nc(N3CCNCC3)c21 [Example 29, 2-[7-(2-Butynyl)-2-chloro-8-oxo-6-(piperazin-1-yl)-7,8-dihydropurin-9-ylmethyl]benzonitrile trifluoroacetic acid salt]  2.92 nM
